# Legend:
# Type in all cases: in vivo, mouse
# [1] = system: doxorubicin-induced aged C57BL6J mice; assay: SA-β-gal staining in doxorubicin-aged mice, Example 22-3, Table 32; conditions: staining area, untreated aged = 100
# Protocol: (§1) Eight-week-old male C57BL6J mice (KRIBB Laboratory Animal Resource Center) were acclimated to the experimental environment for one week. Afterwards, the anticancer agent doxorubicin was administered intraperitoneally at a concentration of 10 mg/kg, inducing aging for more than 10 days. The aging-induced mice were randomly assigned to experimental and control groups. LX-403 was mixed with a 10% ethanol solution of PEG400 and administered orally at a concentration of 25 mg/kg or intradermally at a concentration of 1 μM for 21 days. LX-1801 was mixed in distilled water with 4% DMSO, 30% PEG300, and 5% Tween80 and administered intradermally at a concentration of 0.4 μM daily for 21 days. LX-2001 was mixed in PBS and administered intradermally at a concentration of 2 μM daily for 21 days. LX-2002 was mixed in distilled water with 4% DMSO, 30% PEG300, and 5% Tween80 and administered intradermally at a concentration of 2 μM daily for 21 days. […] LX-2005 was mixed in distilled water with 4% DMSO, 30% PEG300, and 5% Tween80 and administered intradermally at a concentration of 90 μM daily for 21 days. LX-2007 was mixed in distilled water with 4% DMSO, 30% PEG300, and 5% Tween80 and administered intradermally at a concentration of 90 μM daily for 21 days. […] LX-3002 was mixed in distilled water with 4% DMSO, 30% PEG300, and 5% Tween80 and administered orally at a concentration of 10 mg/kg daily for 21 days. […] LX-5411 was mixed in 5% phosphate-buffered saline (PBS) and administered orally at a concentration of 10 mg/kg daily for 21 days or intradermally at a concentration of 3 μM. LX-5701 was mixed in PBS and administered orally at a concentration of 360 mg/kg daily for 21 days. LX-6807 was mixed in saline and administered intraperitoneally at a concentration of 1 mg/kg daily for 21 days. The control group received only the solution in the same volume. After the end of drug administration, the methods described in each example below were performed.
# Mice were sacrificed as described in Example 7-3 of WO2023-085787 A1, and tissue sections were prepared from each organ tissue site and stained for the aging-related marker SA-β-gal.
# [2] = system: obesity-induced aged C57BL6J mice; assay: Serum IL6 and activin A (ELISA) in obesity-aged mice, Example 23-3, Table 43; conditions: 360 mg/kg oral daily for 21 days
# Protocol: (§2) 15-week-old male C57BL6J mice (The Jackson Laboratory) were induced to obesity by a high-fat diet using the same method as in Example 9-1 WO2023-085787 A1. After acclimation to the experimental environment for one week, the mice were randomly assigned to experimental and control groups. […] LX-3002 was mixed in distilled water with 4% DMSO, 30% PEG300, and 5% Tween80 and administered orally at a concentration of 10 mg/kg daily for 21 days. LX-5701 was mixed in PBS and administered orally at a concentration of 360 mg/kg daily for 21 days. LX-6807 was mixed in saline and administered intraperitoneally at a concentration of 1 mg/kg daily for 21 days. The control group received only the solution in the same volume. After the end of drug administration, the methods described in each example below were performed.
# The levels of IL6 and activin A, senescence-associated secretory factors (SASP), were measured in serum collected from mice using the same method as in Example 7-5 of WO2023-085787 A1 using an enzyme-linked immunosorbent assay (ELISA Kit, R&D Systems).
# [3] = system: doxorubicin-induced aged C57BL6J mice; assay: p16 and p21 mRNA in doxorubicin-aged mice, Example 22-2, Table 31; conditions: untreated aged = 100%
# Protocol: as §1
# Mice were sacrificed using the same method as in Example 7-2 of WO2023-085787 A1. RNA was extracted from organ tissues of each site, and cDNA synthesized was used for qRT-PCR and analysis. […] The mRNA amounts of p16 and p21 after aging induction were calculated as 100% and compared with the mRNA amounts of p16 and p21 after LX-5701 treatment.
# [4] = system: mice with peritoneal fibrosis induced by chlorhexidine gluconate; assay: Chlorhexidine gluconate (CHG) peritoneal fibrosis in mice, Example 20
# Text: The anti-fibrosis activity of LX-5701 was confirmed using the same method as in Example 6-2 of WO2023-085787 A1. The thickness of the peritoneal mesothelial cell layer was quantitatively evaluated in mice with peritoneal fibrosis induced by chlorhexidine gluconate (CHG) under untreated and LX-5701-treated conditions.
# [5] = system: doxorubicin-induced aged C57BL6J mice; assay: SASP mRNA (IL6, CXCL1, CXCL10, IL1B) in doxorubicin-aged mice, Example 22-6, Table 35; conditions: untreated aged = 100%
# Protocol: as §1
# Using cDNA synthesized in the same manner as in Example 7-6 of WO2023-085787 A1, qRT-PCR was performed and analyzed for senescence-associated secretory factors (SASPs) like IL6, CXCL1, CXCL10, IL1B, etc. […] The mRNA amount of each factor after aging induction was calculated as 100% and compared with the mRNA amount of each factor after LX-5701 treatment.
# [6] = system: obesity-induced aged C57BL6J mice; assay: p16 and p21 mRNA in obesity-aged mice, Example 23-2, Table 42; conditions: 360 mg/kg oral daily for 21 days, untreated 100%
# Protocol: as §2
# Mice were sacrificed using the same method as in Example 7-2 of WO2023-085787 A1. RNA was extracted from organ tissues from each site, and the synthesized cDNA was used for qRT-PCR (quantitative real-time PCR) analysis. […] The mRNA levels of p16 and p21 after obesity induction were calculated as 100% and compared with the mRNA levels of p16 and p21 after LX-5701 treatment.
compound,measurement,setting,value
O=C1C2CCN(CC2)C1CNC(=O)C(F)(F)F (centres unmarked) [LX-5701],"SA-β-gal (%), Kidney",[1]; Kidney,64 (±9.7) %
same,"SA-β-gal (%), Liver",[1]; Liver,43 (±14.2) %
same,"SA-β-gal (%), Lung",[1]; Lung,68 (±14.8) %
same,"SA-β-gal (%), eWAT",[1]; eWAT,66 (±10.5) %
same,Activin A,[2]; untreated 100 (±7.5),61.7 (±14.0) %
same,IL6,[2]; untreated 100 (±11.6),53.9 (±15.4) %
same,"p16 mRNA (%), Kidney",[3]; Kidney,78 (±7.7) %
same,"p21 mRNA (%), Kidney",[3]; Kidney,75 (±5.8) %
same,"p16 mRNA (%), Liver",[3]; Liver,62 (±7.5) %
same,"p21 mRNA (%), Liver",[3]; Liver,64 (±11.7) %
same,"p16 mRNA (%), eWAT",[3]; eWAT,55 (±11.5) %
same,"p21 mRNA (%), eWAT",[3]; eWAT,71 (±8.8) %
same,Submesothelial Thickness,[4],41.8 (±7.5) μm
same,"CXCL1 mRNA (%), Liver",[5]; Liver,68 (±14.8) %
same,"CXCL10 mRNA (%), Liver",[5]; Liver,75 (±4.1) %
same,"IL1β mRNA (%), Liver",[5]; Liver,73 (±3.5) %
same,"IL6 mRNA (%), Liver",[5]; Liver,64 (±7.5) %
same,"CXCL1 mRNA (%), eWAT",[5]; eWAT,74 (±4.7) %
same,"CXCL10 mRNA (%), eWAT",[5]; eWAT,69 (±7.0) %
same,"IL1β mRNA (%), eWAT",[5]; eWAT,56 (±11.2) %
same,"IL6 mRNA (%), eWAT",[5]; eWAT,55 (±15.1) %
same,"p16 mRNA, Eye",[6]; Eye,71%
same,"p21 mRNA, Eye",[6]; Eye,70%
same,"p16 mRNA, Heart",[6]; Heart,80%
same,"p21 mRNA, Heart",[6]; Heart,81%
same,"p16 mRNA, Liver",[6]; Liver,63%
same,"p21 mRNA, Liver",[6]; Liver,61%
same,"p16 mRNA, Lung",[6]; Lung,74%
same,"p21 mRNA, Lung",[6]; Lung,77%
same,"p16 mRNA, Muscle",[6]; Muscle,75%
same,"p21 mRNA, Muscle",[6]; Muscle,64%
same,"p16 mRNA, Skin",[6]; Skin,77%
same,"p21 mRNA, Skin",[6]; Skin,68%
same,"p16 mRNA, asWAT",[6]; asWAT,67%
same,"p21 mRNA, asWAT",[6]; asWAT,79%
same,"p16 mRNA, eWAT",[6]; eWAT,65%
same,"p21 mRNA, eWAT",[6]; eWAT,55%
same,"p16 mRNA, iBAT",[6]; iBAT,72%
same,"p21 mRNA, iBAT",[6]; iBAT,80%
same,"p16 mRNA, iWAT",[6]; iWAT,61%
same,"p21 mRNA, iWAT",[6]; iWAT,51%

# Reference: patent US20260306460A1, “COMPOSITION FOR REMOVING AND INHIBITING SENESCENT CELLS, AND USES THEREOF” (LIFECEUTIX CO., LTD., priority 2023, published 2026)
